Measurements from the supplement of paper PMC11208160.

Assay: recombinant UMI read abundance after kanamycin selection (control-corrected) (log10(CPM+1)); higher = more efficient recombination; extreme values may be limits of the assay; sequences stand for … in AGTGCAGAGAAAATCGGCCAGTTTTCTCTGCCTGCAGTCCGCATGCCGTGGGACCCCTTGGGTTCTAACCTGTTGCCTAGATTTATGCAGCGGACTGCCTTTCTCCCAAAGTGATAAACCGG…AGGTTGGTTTCACT; site = the 11-nt donor
Summary of the method: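 Counts of recombinant UMIs were reported as log10(CPM+1). Before that, they were converted to CPM, averaged over replicates and scaled using control-derived factors. They came from PCR across the donor–target junction after Escherichia coli carrying the pair library and target plasmid was plated on IPTG (0.07 mM) plus kanamycin, or unselected, in two replicates each.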
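Note: IS621 bridge recombinase in Escherichia coli cells against a fixed T5 target plasmid.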

Sequence	recombinant UMI read abundance (log10)
GCTGGCCCATGGACCGGTTTTCCCGGTAATCCGTATTTGAT (site GCTCGCCCTAT)	0.00439
GCTGGCCCATGGACCGGTTTTCCCGGTAATCCGTATTTGAT (site GCTGGCCCTAT)	0.00519
GCTGGCCCATGGACCGGTTTTCCCGGTAATCCGTATTTGAT (site GCTTGCCCTAT)	0
GCTGGTCCATGGACCGGTTTTCCCGGTAATCCGTATTTGTA (site GCTGGTCCTTA)	0.297
GCTGTCCCATGGACCGGTTTTCCCGGTAATCCGTATTTGGC (site GCTGTCCCTGC)	0
GCTGTTCCATGGACCGGTTTTCCCGGTAATCCGTATTTGGT (site GATGTTCCTAC)	0.0117
GCTGTTCCATGGACCGGTTTTCCCGGTAATCCGTATTTGGT (site GCTGTTCCTAC)	0
GCTGTTCCATGGACCGGTTTTCCCGGTAATCCGTATTTGGT (site GGTGTTCCTAC)	0.0107
GCTGTTCCATGGACCGGTTTTCCCGGTAATCCGTATTTGGT (site GTTGTTCCTAC)	0
GCTTGCCCATGGACCGGTTTTCCCGGTAATCCGTATTTGAT (site ACTTGCCCTAT)	0
GCTTGCCCATGGACCGGTTTTCCCGGTAATCCGTATTTGAT (site CCTTGCCCTAT)	0.0733
GCTTGCCCATGGACCGGTTTTCCCGGTAATCCGTATTTGAT (site GATTGCCCTAT)	0.0145
GCTTGCCCATGGACCGGTTTTCCCGGTAATCCGTATTTGAT (site GCATGCCCTAT)	0.0036
GCTTGCCCATGGACCGGTTTTCCCGGTAATCCGTATTTGAT (site GCCTGCCCTAT)	0.0885
GCTTGCCCATGGACCGGTTTTCCCGGTAATCCGTATTTGAT (site GCGTGCCCTAT)	0.0338
GCTTGCCCATGGACCGGTTTTCCCGGTAATCCGTATTTGAT (site GCTAGCCCTAT)	0.00265
GCTTGCCCATGGACCGGTTTTCCCGGTAATCCGTATTTGAT (site GCTCGCCCTAT)	0.249

Sequence	recombinant UMI read abundance (log10)
GCTTGCCCATGGACCGGTTTTCCCGGTAATCCGTATTTGAT (site GCTGGCCCTAT)	0.00346
GCTTGCCCATGGACCGGTTTTCCCGGTAATCCGTATTTGAT (site GCTTACCCTAT)	0.00934
GCTTGCCCATGGACCGGTTTTCCCGGTAATCCGTATTTGAT (site GCTTCCCCTAT)	0.0974
GCTTGCCCATGGACCGGTTTTCCCGGTAATCCGTATTTGAT (site GCTTGACCTAT)	0.0101
GCTTGCCCATGGACCGGTTTTCCCGGTAATCCGTATTTGAT (site GCTTGCACTAT)	0.00776
GCTTGCCCATGGACCGGTTTTCCCGGTAATCCGTATTTGAT (site GCTTGCCCTAA)	0.00772
GCTTGCCCATGGACCGGTTTTCCCGGTAATCCGTATTTGAT (site GCTTGCCCTAC)	0.00771
GCTTGCCCATGGACCGGTTTTCCCGGTAATCCGTATTTGAT (site GCTTGCCCTAG)	0
GCTTGCCCATGGACCGGTTTTCCCGGTAATCCGTATTTGAT (site GCTTGCCCTAT)	0.0141
GCTTGCCCATGGACCGGTTTTCCCGGTAATCCGTATTTGAT (site GCTTGCCCTCT)	0.0236
GCTTGCCCATGGACCGGTTTTCCCGGTAATCCGTATTTGAT (site GCTTGCCCTGT)	0
GCTTGCCCATGGACCGGTTTTCCCGGTAATCCGTATTTGAT (site GCTTGCCCTTT)	0.0171
GCTTGCCCATGGACCGGTTTTCCCGGTAATCCGTATTTGAT (site GCTTGCGCTAT)	0.0038
GCTTGCCCATGGACCGGTTTTCCCGGTAATCCGTATTTGAT (site GCTTGCTCTAT)	0.571
GCTTGCCCATGGACCGGTTTTCCCGGTAATCCGTATTTGAT (site GCTTGGCCTAT)	0.0246
GCTTGCCCATGGACCGGTTTTCCCGGTAATCCGTATTTGAT (site GCTTGTCCTAT)	0.00271
GCTTGCCCATGGACCGGTTTTCCCGGTAATCCGTATTTGAT (site GCTTTCCCTAT)	0
